# According to patent US4220755A, “Fortimicin B derivatives and process for production thereof” (Abbott Laboratories, priority 1976, dated 1980):
# Read-outs that look alike come from different tables or passages of the source.
# Legend:
# Eschericihia coli 3100 = test: MIC, agar dilution method, pH 7.2; assay type: cell-based, Escherichia coli; settings: Escherichia coli, 3100, pH 7.2, read-out: Minimum inhibition concentration (MIC)
# Protocol: (§1) Measurement was carried out according to the agar dilution method, using a medium of pH 8.0, or the Japanese Antibiotic Medicament Standard, using a medium of pH 7.2 Units are in mcg/ml.
# [1] = tested on: Escherichia coli R12 Z-338; test: MIC, agar dilution method, pH 7.2; assay type: cell-based; settings: R12Z338, pH 7.2, E. coli R12 Z-338, 1**: gentamicin, producing adenylsynthetase, read-out: Minimum inhibition concentration (MIC)
# Protocol: as §1
# (§2) **1: gentamicin, producing adenylsynthetase.
# [2] = tested on: Escherichia coli 57R/W677; test: MIC, agar dilution method, pH 7.2; assay type: cell-based; settings: 57R/W677, pH 7.2, read-out: Minimum inhibition concentration (MIC)
# Protocol: as §1, §2
# [3] = tested on: Klebsiella pneumoniae 3020 Y-60; test: MIC, agar dilution method, pH 7.2; assay type: cell-based; settings: Klebsiella pneumoniae, 3020Y60, pH 7.2, read-out: Minimum inhibition concentration (MIC)
# Protocol: as §1, §2
# Escherichia coli 76-2 = test: MIC, agar dilution method, pH 7.2; assay type: cell-based; settings: Escherichia coli, 762; pH 7.2; E. coli 76-2; 1**: gentamicin, producing adenylsynthetase; read-out: Minimum inhibition concentration (MIC)
# Protocol: as §1, §2
# Serratia marcescens 1065 = test: MIC, agar dilution method, pH 7.2; assay type: cell-based; settings: Serratia marcescens, 1065, pH 7.2, read-out: Minimum inhibition concentration (MIC)
# Protocol: as §1
# (§3) 3: kanamycin, producing acetyltransferase.
# [4] = tested on: Escherichia coli R17 Z343; test: MIC, agar dilution method, pH 7.2; assay type: cell-based; settings: R17Z343, pH 7.2, E. coli R17 Z343, 3**: kanamycin, producing acetyltransferase, read-out: Minimum inhibition concentration (MIC)
# Protocol: as §1, §3
# [5] = tested on: Pseudomonas aeruginosa R9 KY8516; test: MIC, agar dilution method, pH 7.2; assay type: cell-based; settings: R9KY8516, pH 7.2, read-out: Minimum inhibition concentration (MIC)
# Protocol: as §1, §3
# [6] = tested on: Escherichia coli R18 KY8321; test: MIC, agar dilution method, pH 7.2; assay type: cell-based; settings: R18KY8321, E. coli R18 KY8321, 2**: gentamicin, producing adenylsynthetase and neomycin phosphotransferase type II, read-out: Minimum inhibition concentration (MIC)
# Protocol: as §1
# 2: gentamicin, producing adenylsynthetase and neomycin phosphotransferase
# [7] = tested on: Pseudomonas aeruginosa R4 KY8511; test: MIC, agar dilution method, pH 7.2; assay type: cell-based; settings: R4KY8511, pH 7.2, read-out: Minimum inhibition concentration (MIC)
# Protocol: as §1
# (§4) 4: gentamicin, producing acetyltransferase type I.
# [8] = tested on: Escherichia coli R19 KY8348; test: MIC, agar dilution method, pH 7.2; assay type: cell-based; settings: R19KY8348, pH 7.2, read-out: Minimum inhibition concentration (MIC)
# Protocol: as §1, §4
# [9] = tested on: Staphylococcus a ureus 226; test: MIC, agar dilution method, pH 7.2; assay type: cell-based, Staphylococcus aureus; settings: pH 7.2, read-out: Minimum inhibition concentration (MIC)
# Protocol: as §1
# [10] = tested on: Pseudomonas aeruginosa BMH# 1; test: MIC, agar dilution method, pH 7.2; assay type: cell-based; settings: Pseudomonas aeruginosa, pH 7.2, read-out: Minimum inhibition concentration (MIC)
# Protocol: as §1
# Shigella sonnei ATCC9290 = test: MIC, agar dilution method, pH 7.2; assay type: cell-based; settings: read-out: Minimum inhibition concentration (MIC)
# Protocol: as §1
# [11] = tested on: Salmonella enteritidis G-14; test: MIC, agar dilution method, pH 7.2; assay type: cell-based; settings: Salmonella enterica, ENTERITIDIS, pH 7.2, read-out: Minimum inhibition concentration (MIC)
# Protocol: as §1
# Proteus vulgaris JJ = test: MIC, agar dilution method, pH 7.2; assay type: cell-based; settings: Proteus vulgaris, pH 7.2, read-out: Minimum inhibition concentration (MIC)
# Protocol: as §1
# [12] = tested on: Staphylococcus aureus Smith (A); test: MIC, agar dilution method, pH 7.2; assay type: cell-based; settings: Staphylococcus aureus, pH 7.2, read-out: Minimum inhibition concentration (MIC)
# Protocol: as §1
# [13] = tested on: Staphylococcus aureus 209-P; test: MIC, agar dilution method, pH 7.2; assay type: cell-based; settings: Staphylococcus aureus, 209P, pH 7.2, read-out: Minimum inhibition concentration (MIC)
# Protocol: as §1
# [14] = tested on: Klebsiella pneumoniae KY4274; test: MIC, agar dilution method, pH 7.2; assay type: cell-based; settings: Klebsiella pneumoniae, KY4274, pH 7.2, read-out: Minimum inhibition concentration (MIC)
# Protocol: as §1
# Escherichia coli NIHTC-2 = test: MIC, agar dilution method, pH 7.2; assay type: cell-based; settings: Escherichia coli, NIHTC2, pH 7.2, read-out: Minimum inhibition concentration (MIC)
# Protocol: as §1
# [15] = tested on: Eschericihia coli GN2411-5; test: MIC, agar dilution method, pH 7.2; assay type: cell-based; settings: Escherichia coli, GN2411, pH 7.2, read-out: Minimum inhibition concentration (MIC)
# Protocol: as §1
# [16] = tested on: Pseudomonas aeruginosa UCLA 4184; test: MIC, agar dilution method, pH 7.2; assay type: cell-based; settings: Pseudomonas aeruginosa, UCLA4184, pH 7.2, read-out: Minimum inhibition concentration (MIC)
# Protocol: as §1
# [17] = tested on: Pseudomonas aeruginosa R5 KY8512; test: MIC, agar dilution method, pH 7.2; assay type: cell-based; settings: R5KY8512, pH 7.2, read-out: Minimum inhibition concentration (MIC)
# Protocol: as §1
# 6: neomycin, producing phosphotransferase type I and type II.
# [18] = tested on: Escherichia coli R20 KY8349; test: MIC, agar dilution method, pH 7.2; assay type: cell-based; settings: R20KY8349, pH 7.2, E. coli R20 KY8349, 5**: neomycin, producing phosphotransferase type I, read-out: Minimum inhibition concentration (MIC)
# Protocol: as §1
# 5: neomycin, producing phosphotransferase type I.
# Providencia sp 164 = test: MIC, agar dilution method, pH 7.2; assay type: cell-based; settings: pH 7.2; Providencia sp 164; 7**: gentamicin, producing acetyltransferase type II; read-out: Minimum inhibition concentration (MIC)
# Protocol: as §1
# 7: gentamicin, producing acetyltransferase type II.
# [19] = tested on: Klebsiella pneumoniae KY4275 ATCC10031; test: MIC, agar dilution method, pH 8.0; assay type: cell-based; settings: ATCC10031; pH 8.0; Klebsiella pneumoniae KY4275; read-out: Minimum inhibition concentration (MIC), KP
# Protocol: as §1
# K.P.: Klebsiella pneumoniae KY4275 ATCC10031.
# [20] = tested on: Salmonella typhosa KY4278 ATCC9992; test: MIC, agar dilution method, pH 8.0; assay type: cell-based; settings: Salmonella enterica, pH 8, read-out: Minimum inhibition concentration (MIC), ST
# Protocol: as §1
# S.T.: Salmonella typhosa KY4278 ATCC9992
# Bacillus subtilis KY4273 = test: MIC, agar dilution method, pH 8.0; assay type: cell-based
# Protocol: as §1
# B.S.: Bacillus subtilis KY4273
# [21] = tested on: Staphylococcus aureus KY4279 ATCC6538P; test: MIC, agar dilution method, pH 8.0; assay type: cell-based
# Protocol: as §1
# S.A.: Staphylococcus aureus KY4279 ATCC6538P
# [22] = tested on: Shigella sonnei KY4281 ATCC9290; test: MIC, agar dilution method, pH 8.0; assay type: cell-based; settings: ATCC9290; pH 8.0; Shigella sonnei KY4281; read-out: Minimum inhibition concentration (MIC), SS
# Protocol: as §1
# [23] = tested on: Proteus vulgaris KY4277 ATCC6897; test: MIC, agar dilution method, pH 8.0; assay type: cell-based; settings: ATCC6897; pH 8.0; Proteus vulgaris KY4277; read-out: Minimum inhibition concentration (MIC), PV
# Protocol: as §1
# [24] = tested on: Eschericia coli KY4271 ATCC26; test: MIC, agar dilution method, pH 8.0; assay type: cell-based; settings: Escherichia coli
# Protocol: as §1
# E.C.: Eschericia coli KY4271 ATCC26
# [25] = pH 8.0, Bacillus subtilis KY4273, read-out: Minimum inhibition concentration (MIC), BS
# [26] = ATCC26, pH 8.0, E. coli KY4271, read-out: Minimum inhibition concentration (MIC), EC
# [27] = pH 8.0, Staphylococcus aureus KY4279, read-out: Minimum inhibition concentration (MIC), SA
# [28] = ATCC26, pH 8, read-out: Minimum inhibition concentration (MIC), EC
smiles,measurement,setting,value
"NC[C@H]1O[C@H](O[C@H]2[C@H](O)[C@@H](O[C@H]3O[C@H](CO)[C@@H](O)[C@H](N)[C@H]3O)[C@H](N)C[C@@H]2N)[C@H](O)[C@@H](O)[C@@H]1O [KA, kanamycin A, reference compound]",MIC,Eschericihia coli 3100,3.12 µg/mL
same,MIC,[1],100 µg/mL
same,MIC,[2],> 100 µg/mL
same,MIC,[3],> 100 µg/mL
same,MIC,Escherichia coli 76-2,> 100 µg/mL
same,MIC,Serratia marcescens 1065,100 µg/mL
same,MIC,[4],12.5 µg/mL
same,MIC,[5],> 100 µg/mL
same,MIC,[6],> 100 µg/mL
same,MIC,[7],100 µg/mL
same,MIC,[8],1.56 µg/mL
same,MIC,[9],0.78 µg/mL
same,MIC,[10],25 µg/mL
same,MIC,Shigella sonnei ATCC9290,3.12 µg/mL
same,MIC,[11],3.12 µg/mL
same,MIC,Proteus vulgaris JJ,1.56 µg/mL
same,MIC,[12],0.4 µg/mL
same,MIC,[13],0.4 µg/mL
same,MIC,[14],> 100 µg/mL
same,MIC,Escherichia coli NIHTC-2,1.56 µg/mL
same,MIC,[15],3.12 µg/mL
same,MIC,[16],> 100 µg/mL
same,MIC,[17],> 100 µg/mL
same,MIC,[18],> 100 µg/mL
same,MIC,Providencia sp 164,> 100 µg/mL
"CCCCN(C)[C@H]1[C@@H](O)[C@H](O[C@H]2O[C@H]([C@H](C)N)CC[C@H]2N)[C@@H](N)[C@H](O)[C@@H]1OC [Compound 18, 4-N-(n-butyl)fortimicin B]",MIC,[19],> 200 µg/mL
same,MIC,[20],12.5 µg/mL
same,MIC,Bacillus subtilis KY4273; [25],25 µg/mL
same,MIC,"[21]; Staphylococcus aureus, pH 8, read-out: Minimum inhibition concentration (MIC), SA",12.5 µg/mL
same,MIC,[22],25 µg/mL
same,MIC,[23],100 µg/mL
same,MIC,[24]; [26],25 µg/mL
"CO[C@H]1[C@@H](O)[C@H](N)[C@@H](O[C@H]2O[C@H]([C@H](C)N)CC[C@H]2N)[C@H](O)[C@@H]1N(C)C(=O)CNC(=O)CN [Compound 13, 4-N-glycylglycylfortimicin B]",MIC,[19],2.5 µg/mL
same,MIC,[20],1.25 µg/mL
same,MIC,Bacillus subtilis KY4273; [25],0.32 µg/mL
same,MIC,[21]; [27],0.32 µg/mL
same,MIC,[22],5 µg/mL
same,MIC,[23],2.5 µg/mL
same,MIC,[24]; [28],1.25 µg/mL
"CO[C@H]1[C@@H](O)[C@H](N)[C@@H](O[C@H]2O[C@H]([C@H](C)N)CC[C@H]2N)[C@H](O)[C@@H]1N(C)CCCCCCN [Compound 23, 4-N-(6-aminohexyl)fortimicin B]",MIC,[19],> 80 µg/mL
same,MIC,[20],20 µg/mL
same,MIC,Bacillus subtilis KY4273; [25],5 µg/mL
same,MIC,[21]; [27],5 µg/mL
same,MIC,[22],> 80 µg/mL
same,MIC,[23],> 80 µg/mL
same,MIC,[24]; [26],20 µg/mL
"CCC(=O)N(C)[C@H]1[C@@H](O)[C@H](O[C@H]2O[C@H]([C@H](C)N)CC[C@H]2N)[C@@H](N)[C@H](O)[C@@H]1OC [Compound 6, 4-N-propionylfortimicin B]",MIC,[19],> 200 µg/mL
same,MIC,[20],50 µg/mL
same,MIC,Bacillus subtilis KY4273; [25],50 µg/mL
same,MIC,[21]; [27],12.5 µg/mL
same,MIC,[22],> 200 µg/mL
same,MIC,[23],200 µg/mL
same,MIC,[24]; [26],50 µg/mL
"CO[C@H]1[C@@H](O)[C@H](N)[C@@H](O[C@H]2O[C@H]([C@H](C)N)CC[C@H]2N)[C@H](O)[C@@H]1N(C)CCNCCN [Compound 25, 4-N-[2-(2-aminoethyl)aminoethyl]fortimicin B]",MIC,[19],5 µg/mL
same,MIC,[20],1.25 µg/mL
same,MIC,"Bacillus subtilis KY4273; Bacillus subtilis, KY4273, pH 8, read-out: Minimum inhibition concentration (MIC), BS",1.25 µg/mL
same,MIC,[21]; [27],0.63 µg/mL
same,MIC,[22],5 µg/mL
same,MIC,[23],5 µg/mL
same,MIC,[24]; [28],1.25 µg/mL
